The text below walks through data of patent US20250241870A1, “OXYRESVERATROL AND DERIVATIVES THEREOF FOR USE IN LIPOLYSIS” (Caliway Biopharmaceuticals Co., Ltd., priority 2024, published 2025).

For series [1], the system named is 3T3-L1 mature adipocytes. Briefly: MTT assay, cell viability rate of 3T3-L1 mature adipocytes. Type of series: cell-based. Particulars: 24 hours; for Cell viability compared with DMSO Vehicle group / Effect on adipocytes compared with resveratrol at the same concentration: p<0.001; for Cell viability rate compared with 0.2% DMSO Vehicle group: 20 ppm, 40 ppm and 60 ppm, p<0.001, dose effect; for Effect on adipocytes compared with resveratrol at the same concentration: 40 ppm. The protocol:
(§1) 3T3-L1 cell subculture medium (preadipocytes): DMEM+10% BCS+1% P/S.
(§2) 3T3-L1 cell induction differentiation medium (mature adipocytes): DMI Medium: DMEM+10% FBS+1% P/S+0.5 μM IBMX+0.1 μM dexamethasone+5 μg/mL insulin; and INS Medium: DMEM+10% FBS+1% P/S+5 μg/mL insulin. IBMX stock solution was prepared as follows: 500 mM solution in DMSO diluted and used to prepare the differentiation medium. Dexamethasone stock solution was preprepared as follows: 10 mM solution in EtOH diluted and used to prepare the differentiation medium. Insulin stock solution was prepared as follows: 10 mg/mL solution in double distilled water (ddw) diluted and used to prepare the differentiation medium.
(§3) Steps to induce differentiation: The adipocyte precursors 3T3-L1 cells (purchased from the Food Industry Research and Development Institute, Taiwan; abbreviated as BCRC) were seeded in 12-well plates, such that each well contained 1×10^5 cells.
(§4) MTT assay: After 3T3-L1 cells were induced to differentiate into mature adipocytes for 8 days, Resveratrol or Oxyresveratrol was added for treatment for 24 hours, then the culture medium was replaced with MTT reagent (working concentration: 0.5 mg/mL), and cultured in a 37° C. incubator for 2 hours. After removing the supernatant, DMSO was added to dissolve the purple crystals, and an ELISA reader was used to measure the OD 570 nm absorbance value and OD 630 nm background absorbance value. The background value OD 630 nm was subtracted from the measured value OD 570 nm in each group to obtain the final absorbance value.
(§5) Calculation formula (cell viability rate): After measuring the absorbance value at 570 nm and subtracting the background absorbance at 630 nm, the final absorbance value was multiplied by the […] and divided by the average absorbance value of the Control group for calculation.
(§6) 3T3-L1 preadipocytes and mature adipocytes were cultured using the same cell subculture medium disclosed in Example 1 above. Adipocytes differentiation, MTT assay, and determination cell viability was conducted following the methods disclosed herein. See, e.g. Example 1 above.

Assay in series [2]: as above
Type of series: cell-based. As to conditions: mouse. The protocol: as §1, §2, §3, §4, §5, §6

[3] abbreviates: Cell viability rate, Replicate 1.
Setting [4] is: Cell viability rate, Replicate 2.
Where [5] appears, read: Cell viability rate, Replicate 3.
The mark [6] stands for this setting: Cell viability rate, Replicate 4.

Each structure is given as a SMILES string. Like-named read-outs stand apart in the source and are kept apart here.

As usually defined, the viability is a per cent measure of how many cells are alive, often set against a control.

On to `COc1ccc(/C=C/c2cc(O)cc(O)c2)cc1O` [IM05, 5-[(E)-2-(3-hydroxy-4-methoxyphenyl)ethenyl]benzene-1,3-diol], for which, in series [1] (50 ppm), the “Cell viability compared with DMSO Vehicle group” value is reported as “significantly decreased”. Further, the viability at 24 h, 50 ppm turned out to be 72.4% in series [2] (3T3-L1 mature adipocytes (differentiated from preadipocytes), 3T3-L1 mature adipocytes, drug 50 ppm, 0.2% DMSO, 24 hours, mean of 4 replicates, read-out: Cell viability rate, Mean); 66.5% in series [2] (3T3-L1 mature adipocytes (differentiated from preadipocytes), 3T3-L1 mature adipocytes, drug 50 ppm, 0.2% DMSO, 24 hours, read-out: Cell viability rate, Replicate 1); 71.2% in series [2] (3T3-L1 mature adipocytes (differentiated from preadipocytes), 3T3-L1 mature adipocytes, drug 50 ppm, 0.2% DMSO, 24 hours, read-out: Cell viability rate, Replicate 2); 73.5% in series [2] (3T3-L1 mature adipocytes (differentiated from preadipocytes), 3T3-L1 mature adipocytes, drug 50 ppm, 0.2% DMSO, 24 hours, read-out: Cell viability rate, Replicate 3); 78.4% in series [2] (3T3-L1 mature adipocytes (differentiated from preadipocytes), 3T3-L1 mature adipocytes, drug 50 ppm, 0.2% DMSO, 24 hours, read-out: Cell viability rate, Replicate 4).
Regarding `Oc1cc(O)cc(/C=C/c2ccc(O)cc2O)c1` [Oxyresveratrol, 4-[(E)-2-(3,5-dihydroxyphenyl)ethenyl]benzene-1,3-diol], the “Cell viability rate compared with 0.2% DMSO Vehicle group” value in series [1] is given as “significantly lower than 0.2% DMSO Vehicle group”. In addition, the “Effect on adipocytes compared with resveratrol at the same concentration” value in series [1] (listed as OxyR) is recorded as “more effective in reducing adipocytes than Res”; in series [1] (listed as oxyresveratrol), “better inhibitory effects against adipocytes as compared with resveratrol”. For the same compound, in series [1] (50 ppm), the “Effect on adipocytes survival compared with derivatives TriacetylR and IM05” value is recorded as “more effective in reducing adipocytes survival than its derivatives”. Also, in series [1] (50 ppm), the “Cell viability compared with DMSO Vehicle group” value was “significantly decreased”. Moreover, the “Cell viability rate compared with resveratrol at the same concentration” value in series [1] (60 ppm) is “no significant difference in cell viability rate”. This compound had a viability at 24 h, 20 ppm in series [2] (Average viability (%)) of 76.8 ± 3.27%. In series [2] (Average viability (%)), this compound displayed a viability at 24 h, 40 ppm of 28.65 ± 0.26%. The viability at 24 h, 60 ppm in series [2] (Average viability (%)) is 12.5 ± 1.09%. Further, the viability at 24 h, 50 ppm amounted to 39.6% in series [2] (Cell viability rate, Mean); 43.2% in series [2] (setting [3]); 38% in series [2] (setting [4]); 37% in series [2] (setting [5]); 40% in series [2] (setting [6]).
`Oc1ccc(C=Cc2cc(O)cc(O)c2)cc1` [Resveratrol]: the “Cell viability rate compared with 0.2% DMSO Vehicle group” value in series [1] is on record as “significantly lower than 0.2% DMSO Vehicle group”. Further, the viability at 24 h, 20 ppm in series [2] (3T3-L1 mature adipocytes (differentiated from preadipocytes), 3T3-L1 mature adipocytes, drug 20 ppm, 0.2% DMSO, 24 hours, relative to Control, mean ± spread of 3 replicates, read-out: Average viability (%)) was 69.6 ± 1.36%. The viability at 24 h, 40 ppm in series [2] (3T3-L1 mature adipocytes (differentiated from preadipocytes), 3T3-L1 mature adipocytes, drug 40 ppm, 0.2% DMSO, 24 hours, relative to Control, mean ± spread of 3 replicates, read-out: Average viability (%)) is 43.4 ± 1.47%. In addition, in series [2] (3T3-L1 mature adipocytes (differentiated from preadipocytes), 3T3-L1 mature adipocytes, drug 60 ppm, 0.2% DMSO, 24 hours, relative to Control, mean ± spread of 3 replicates, read-out: Average viability (%)), the viability at 24 h, 60 ppm is 14.1 ± 0.6%.
With `CC(=O)Oc1ccc(/C=C/c2cc(OC(C)=O)cc(OC(C)=O)c2)cc1` [TriacetyIR, [4-[(E)-2-(3,5-diacetyloxyphenyl)ethenyl]phenyl] acetate], in series [1] (50 ppm), the “Cell viability compared with DMSO Vehicle group” value is on record as “significantly decreased”. Also, the viability at 24 h, 50 ppm in series [2] (Cell viability rate, Mean) stood at 68.9%; in series [2] (setting [3]), 73.2%; in series [2] (setting [4]) it was 64%; in series [2] (setting [5]), 67.2%; in series [2] (setting [6]), 71.2%.
